The text below walks through data of US6645983B1, “Pharmaceutical compositions comprising 4-quinolones for treating cancers” (Laboratoire L. Lafon, priority 1999, dated 2003).

The test system of one data set is J82. The data set is described as follows: MTT test, cytotoxic activity on non-clonogenic cell lines. Format: cell-based. As to conditions: Homo sapiens, 10^−5 M, 72 hours of incubation, control condition = 100%, mean value, read-out: mean optical density as percentage of control, J82. In a few lines: (§1)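 Human bladder cancer lines were seeded at 20 000–50 000 cells/ml and, after 24 h, exposed to compounds at 10^−5 to 10^−10 M against a solvent control. Formazan was dissolved in DMSO and viability was read by spectrophotometric optical density.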
(In general: Tetrazolium assays rely on reduction of a dye to a coloured formazan, in cell work by metabolically active cells.)
Take `COc1ccc2c(=O)c(-c3ccccc3)c[nH]c2c1` [CRL8359, 7-Methoxy-3-phenyl-1,4-dihydro-4-quinolinone]: the viability at 10 µM is 52.2%.
Still for that read-out and setting: the same measure for `COc1ccc(-c2cn(C)c3cc(OC)cc(O)c3c2=O)cc1` [CRL8377, 5-Hydroxy-7-methoxy-3-(4-methoxyphenyl)-1-methyl-1,4-dihydro-4-quinolinone]: 98.7%.

For the next data set, the system named is T24. The description is as above. Format: cell-based. As to conditions: Homo sapiens, T-24; 10^−5 M, 72 hours of incubation, control condition = 100%, mean value; read-out: mean optical density as percentage of control, T24. In a few lines:
as §1
Consider `COc1ccc2c(=O)c(-c3ccccc3)c[nH]c2c1` [CRL8359, 7-Methoxy-3-phenyl-1,4-dihydro-4-quinolinone], for which the viability at 10 µM was 34.7%.
On the same count and under the same terms, the same measure for `COc1ccc(-c2cn(C)c3cc(OC)cc(O)c3c2=O)cc1` [CRL8377, 5-Hydroxy-7-methoxy-3-(4-methoxyphenyl)-1-methyl-1,4-dihydro-4-quinolinone]: 85%.

A further data set deals with A549. The description is as above. Conditions: Homo sapiens, 10^−5 M, 72 hours of incubation, control condition = 100%, mean value, read-out: mean optical density as percentage of control, A549. Format: cell-based. In a few lines:
(§2)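 Compounds span 10^−5 to 10^−10 M, with solvent-treated wells as control, and the formazan is quantified by absorbance after DMSO solubilization.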
As to `COc1ccc2c(=O)c(-c3ccccc3)c[nH]c2c1` [CRL8359, 7-Methoxy-3-phenyl-1,4-dihydro-4-quinolinone], the viability at 10 µM worked out at 73.9%.
The same measure, in the same setting: the same measure for `COc1ccc(-c2cn(C)c3cc(OC)cc(O)c3c2=O)cc1` [CRL8377, 5-Hydroxy-7-methoxy-3-(4-methoxyphenyl)-1-methyl-1,4-dihydro-4-quinolinone]: 67%.

Another data set deals with LoVo. Described as above. Conditions: Homo sapiens, 10^−5 M, 72 hours of incubation, control condition = 100%, mean value, read-out: mean optical density as percentage of control, LoVo. Format: cell-based. A digest of the protocol: as §2
Regarding `COc1ccc2c(=O)c(-c3ccccc3)c[nH]c2c1` [CRL8359, 7-Methoxy-3-phenyl-1,4-dihydro-4-quinolinone], the viability at 10 µM stood at 30.9%.
The same measure, in the same setting: the same measure for `COc1ccc(-c2cn(C)c3cc(OC)cc(O)c3c2=O)cc1` [CRL8377, 5-Hydroxy-7-methoxy-3-(4-methoxyphenyl)-1-methyl-1,4-dihydro-4-quinolinone]: 85%.

Another data set deals with MCF7. Described as above. Conditions: Homo sapiens, 10^−5 M, 72 hours of incubation, control condition = 100%, mean value, read-out: mean optical density as percentage of control, MCF7. Format: cell-based. A digest of the protocol:
as §2
With `COc1ccc2c(=O)c(-c3ccccc3)c[nH]c2c1` [CRL8359, 7-Methoxy-3-phenyl-1,4-dihydro-4-quinolinone], the viability at 10 µM was 65.8%.
Take `COc1ccc(-c2cn(C)c3cc(OC)cc(O)c3c2=O)cc1` [CRL8377, 5-Hydroxy-7-methoxy-3-(4-methoxyphenyl)-1-methyl-1,4-dihydro-4-quinolinone]: the viability at 10 µM was 104%.

For the next data set, the system named is T-47D. The description is as above. Format: cell-based. Conditions: Homo sapiens, T47D; 10^−5 M, 72 hours of incubation, control condition = 100%, mean value; read-out: mean optical density as percentage of control, T-47D. A digest of the protocol: as §2
Consider `COc1ccc2c(=O)c(-c3ccccc3)c[nH]c2c1` [CRL8359, 7-Methoxy-3-phenyl-1,4-dihydro-4-quinolinone], for which the viability at 10 µM worked out at 41.2%.
On to `COc1ccc(-c2cn(C)c3cc(OC)cc(O)c3c2=O)cc1` [CRL8377, 5-Hydroxy-7-methoxy-3-(4-methoxyphenyl)-1-methyl-1,4-dihydro-4-quinolinone], for which the viability at 10 µM was 66.9%.

The subject of a further data set is HCT-15. Described as above. Format: cell-based. Conditions: Homo sapiens, 10^−5 M, 72 hours of incubation, control condition = 100%, mean value, read-out: mean optical density as percentage of control, HCT-16. A digest of the protocol: as §2
Take `COc1ccc2c(=O)c(-c3ccccc3)c[nH]c2c1` [CRL8359, 7-Methoxy-3-phenyl-1,4-dihydro-4-quinolinone]: the viability at 10 µM is 59.9%.
Still for that read-out and setting: the same measure for `COc1ccc(-c2cn(C)c3cc(OC)cc(O)c3c2=O)cc1` [CRL8377, 5-Hydroxy-7-methoxy-3-(4-methoxyphenyl)-1-methyl-1,4-dihydro-4-quinolinone]: 86.6%.

The next data set concerns U-87MG. Described as above. Format: cell-based. As to conditions: Homo sapiens, U-87 MG; 10^−5 M, 72 hours of incubation, control condition = 100%, mean value; read-out: mean optical density as percentage of control, U-87MG. In a few lines: as §2
`COc1ccc2c(=O)c(-c3ccccc3)c[nH]c2c1` [CRL8359, 7-Methoxy-3-phenyl-1,4-dihydro-4-quinolinone]: the viability at 10 µM came out at 114%.
As to `COc1ccc(-c2cn(C)c3cc(OC)cc(O)c3c2=O)cc1` [CRL8377, 5-Hydroxy-7-methoxy-3-(4-methoxyphenyl)-1-methyl-1,4-dihydro-4-quinolinone], the viability at 10 µM amounted to 49.5%.

For a further data set, the system named is U-373MG. The description is as above. As to conditions: Homo sapiens, U373 MG; 10^−5 M, 72 hours of incubation, control condition = 100%, mean value; read-out: mean optical density as percentage of control, U-373MG. Format: cell-based. In a few lines:
as §2
Turning to `COc1ccc2c(=O)c(-c3ccccc3)c[nH]c2c1` [CRL8359, 7-Methoxy-3-phenyl-1,4-dihydro-4-quinolinone], the viability at 10 µM was determined as 41.2%.
Still for that read-out and setting: the same measure for `COc1ccc(-c2cn(C)c3cc(OC)cc(O)c3c2=O)cc1` [CRL8377, 5-Hydroxy-7-methoxy-3-(4-methoxyphenyl)-1-methyl-1,4-dihydro-4-quinolinone]: 56.7%.

The test system of another data set is A-427. Described as above. Format: cell-based. As to conditions: Homo sapiens, 10^−5 M, 72 hours of incubation, control condition = 100%, mean value, read-out: mean optical density as percentage of control, A-427. In a few lines: as §2
Turning to `COc1ccc2c(=O)c(-c3ccccc3)c[nH]c2c1` [CRL8359, 7-Methoxy-3-phenyl-1,4-dihydro-4-quinolinone], the viability at 10 µM turned out to be 25.8%.
Turning to `COc1ccc(-c2cn(C)c3cc(OC)cc(O)c3c2=O)cc1` [CRL8377, 5-Hydroxy-7-methoxy-3-(4-methoxyphenyl)-1-methyl-1,4-dihydro-4-quinolinone], the viability at 10 µM was 26.5%.

The subject of a further data set is PC-3. The data set is described as above. Format: cell-based. As to conditions: Homo sapiens, 10^−5 M, 72 hours of incubation, control condition = 100%, mean value, read-out: mean optical density as percentage of control, PC-3. A digest of the protocol: as §2
Regarding `COc1ccc2c(=O)c(-c3ccccc3)c[nH]c2c1` [CRL8359, 7-Methoxy-3-phenyl-1,4-dihydro-4-quinolinone], the viability at 10 µM worked out at 123%.
`COc1ccc(-c2cn(C)c3cc(OC)cc(O)c3c2=O)cc1` [CRL8377, 5-Hydroxy-7-methoxy-3-(4-methoxyphenyl)-1-methyl-1,4-dihydro-4-quinolinone]: the viability at 10 µM was 87.4%.

System in another data set: not listed separately
The data set is described as follows: Determination of the maximum tolerated dose (MTD). As to conditions: B6D2F1/Jico, mouse, in vivo, ip; single intraperitoneal administration, doses 2.5 to 160 mg/kg, survival over 14 days. A digest of the protocol:
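Mice were 4- to 6-week-old B6D2F1/Jico. They received a single intraperitoneal dose of 2.5 to 160 mg/kg, and survival and body weight were followed for 14 days. MTD is given in mg/kg and is capped at 160 mg/kg by default.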
What is called MTD is the largest dose that counted as tolerated. A high value points to better tolerability. `COc1ccc2c(=O)c(-c3ccccc3)c[nH]c2c1` [CRL8359, 7-Methoxy-3-phenyl-1,4-dihydro-4-quinolinone] returned an MTD at 14 day of over 160 mg/kg.
Same read-out and setting: the same measure for `COc1ccc(-c2cn(C)c3cc(OC)cc(O)c3c2=O)cc1` [CRL8377, 5-Hydroxy-7-methoxy-3-(4-methoxyphenyl)-1-methyl-1,4-dihydro-4-quinolinone]: over 160 mg/kg.

The next data set deals with SW1088. The data set is described as follows: MTT test, cytotoxic activity on non-clonogenic cell lines. Format: cell-based. Conditions: Homo sapiens, 10^−5 M, 72 hours of incubation, control condition = 100%, mean value, read-out: mean optical density as percentage of control, SW1088. A digest of the protocol:
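Human astrocytoma SW1088 cells seeded, grown 24 h at 37° C, 5% CO2, then exposed to compounds at 10^−5 to 10^−10 M versus solvent control. Viability by MTT reduction: 3 h MTT incubation, formazan dissolved in DMSO and read by spectrophotometry.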
For `COc1ccc2c(=O)c(-c3ccccc3)c[nH]c2c1` [CRL8359, 7-Methoxy-3-phenyl-1,4-dihydro-4-quinolinone], the viability at 10 µM came to 140%.
On the same count and under the same terms, the same measure for `COc1ccc(-c2cn(C)c3cc(OC)cc(O)c3c2=O)cc1` [CRL8377, 5-Hydroxy-7-methoxy-3-(4-methoxyphenyl)-1-methyl-1,4-dihydro-4-quinolinone]: 99.8%.
